This is an account of results in patent US8134015B2, “Compound inhibiting in vivo phosphorous transport and medicine containing the same” (Kyowa Hakko Kirin Co., Ltd., priority 2003, dated 2012).

This assay addresses T1, rat NaPi-2b (Rattus norvegicus, UniProt Q9JJ09).
T1 construct: expressed in transfected cells; host or cells: Xenopus oocytes injected with cRNA
T1 sequence (Q9JJ09 1-695): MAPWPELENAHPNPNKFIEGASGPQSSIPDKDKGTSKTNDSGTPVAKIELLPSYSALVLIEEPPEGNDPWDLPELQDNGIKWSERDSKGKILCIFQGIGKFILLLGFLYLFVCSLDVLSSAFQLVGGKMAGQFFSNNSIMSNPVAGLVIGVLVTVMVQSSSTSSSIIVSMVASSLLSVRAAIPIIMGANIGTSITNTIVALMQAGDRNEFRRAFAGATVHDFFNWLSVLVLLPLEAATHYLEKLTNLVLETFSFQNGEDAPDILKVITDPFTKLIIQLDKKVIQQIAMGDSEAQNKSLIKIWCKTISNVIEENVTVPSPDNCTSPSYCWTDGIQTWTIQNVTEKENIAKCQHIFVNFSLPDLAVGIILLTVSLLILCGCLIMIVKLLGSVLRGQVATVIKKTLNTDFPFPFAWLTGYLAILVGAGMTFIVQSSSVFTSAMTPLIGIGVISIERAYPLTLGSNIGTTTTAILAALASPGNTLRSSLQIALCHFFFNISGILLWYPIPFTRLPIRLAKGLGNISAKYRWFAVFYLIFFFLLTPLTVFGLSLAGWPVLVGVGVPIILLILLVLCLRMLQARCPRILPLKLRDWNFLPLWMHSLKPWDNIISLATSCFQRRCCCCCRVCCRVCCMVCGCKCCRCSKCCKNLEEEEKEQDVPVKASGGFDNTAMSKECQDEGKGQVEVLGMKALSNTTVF
The assay can be described thus: Sodium-dependent phosphate uptake of Xenopus oocytes which expressed NaPi-2b (32P). The assay is classed as cell-based. Conditions: Xenopus oocytes expressing rat NaPi-2b, 32P radioactive phosphorus; read-out: IC50 (phosphate uptake inhibitory activity). In a few lines: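 Rat NaPi-2b cloned from small-intestine cDNA; cRNA injected into Xenopus oocytes, expression for 2 days. Phosphate uptake inhibition measured with 32P; percent inhibition at 300 μM and 100 μM read from the same inhibition curve.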

SMILES strings stand for the structures.

Usually IC50 stands for the point on the concentration scale where inhibition reaches its midpoint. With `CCN(CC)CCSCc1cccc(C(=O)Nc2ccc(N3CCCCC3)cc2C(=O)NN=Cc2ccc(OC)cc2)c1` [Compound 879, 3-(2-Diethylamino-ethylsulfanylmethyl)-N-[2-(4-methoxy-benzylidene-hydrazinocarbonyl)-4-piperidin-1-yl-phenyl]-benzamide], the IC50 came out at 3720 nM.
As for `COc1ccc(/C=N/NC(=O)c2cc(N3CCCCC3)ccc2NC(=O)c2cccc(CSCCO)c2)cc1` [Compound 885, 3-(2-Hydroxy-ethylsulfanylmethyl)-N-[2-(4-methoxy-benzylidene-hydrazinocarbonyl)-4-piperidin-1-yl-phenyl]-benzamide], the figure is 1240 nM; as for `O=C(O)CCSCc1cccc(C(=O)Nc2ccc(N3CCCCC3)cc2C(=O)N/N=C/c2ccc(F)cc2)c1` [Compound 888, 3-{3-[2-(4-Fluoro-benzylidene-hydrazinocarbonyl)-4-piperidin-1-yl-phenylcarbamoyl]-benzylsulfanyl}-propionic acid], 2550 nM.
As for `COc1ccc(/C=N/NC(=O)c2cc(N3CCCCC3)ccc2NC(=O)c2cccc(CSCC(=O)O)c2)cc1` [Compound 892, {3-[2-(4-Methoxy-benzylidene-hydrazinocarbonyl)-4-piperidin-1-yl-phenylcarbamoyl]-benzylsulfanyl}-acetic acid], the figure is 14800 nM; as for `O=C(Nc1ccc(N2CCCCC2)cc1C(=O)N/N=C/c1ccc(Cl)c(C(F)(F)F)c1)c1cccc(CN2CCc3nc4ncccc4cc3C2)c1` [Compound 897, N-[2-(4-Chloro-3-trifluoromethyl-benzylidene-hydrazinocarbonyl)-4-piperidin-1-yl-phenyl]-3-(7,8-dihydro-5H-1,6,9-triaza-anthracen-6-ylmethyl)-benzamide], less than 300 nM.
As for `COc1ccc(/C=N/NC(=O)c2cc(N3CCCCC3)ccc2NC(=O)c2cccc(CN3CCc4nc5ncccc5cc4C3)c2)cc1` [Compound 898, 3-(7,8-Dihydro-5H-1,6,9-triaza-anthracen-6-ylmethyl)-N-[2-(4-methoxy-benzylidene-hydrazinocarbonyl)-4-piperidin-1-yl-phenyl]-benzamide], the figure is less than 300 nM.
Consider `CCN(CC)CCN(CCN(CC)CC)Cc1cccc(C(=O)Nc2ccc(N3CCCCC3)cc2C(=O)N/N=C/c2ccc(C)c(C)c2)c1` [Compound 905, 3-{[Bis-(2-diethylamino-ethyl)-amino]-methyl}-N-[2-(3,4-dimethyl-benzylidene-hydrazinocarbonyl)-4-piperidin-1-yl-phenyl]-benzamide], for which the IC50 was determined as 1180 nM.
For `CCN(CC)CCN(CCN(CC)CC)Cc1cccc(C(=O)Nc2ccc(N3CCCCC3)cc2C(=O)N/N=C/c2ccc(C)cc2)c1` [Compound 906, 3-{[Bis-(2-diethylamino-ethyl)-amino]-methyl}-N-[2-(4-methyl-benzylidene-hydrazinocarbonyl)-4-piperidin-1-yl-phenyl]-benzamide], the IC50 was determined as 1830 nM.
With `CCN(CC)CCN(CCN(CC)CC)Cc1cccc(C(=O)Nc2ccc(N3CCCCC3)cc2C(=O)N/N=C/c2ccc(F)cc2)c1` [Compound 907, 3-{[Bis-(2-diethylamino-ethyl)-amino]-methyl}-N-[2-(4-fluoro-benzylidene-hydrazinocarbonyl)-4-piperidin-1-yl-phenyl]-benzamide], the IC50 turned out to be 6750 nM.
In the case of `CCN(CC)CCN(CCN(CC)CC)Cc1cccc(C(=O)Nc2ccc(N3CCCCC3)cc2C(=O)N/N=C/c2cccc(F)c2)c1` [Compound 908, 3-{[Bis-(2-diethylamino-ethyl)-amino]-methyl}-N-[2-(3-fluoro-benzylidene-hydrazinocarbonyl)-4-piperidin-1-yl-phenyl]-benzamide], the IC50 is 13200 nM.
To `CCN(CC)CCN(CCN(CC)CC)Cc1cccc(C(=O)Nc2ccc(N3CCCCC3)cc2C(=O)N/N=C/c2ccc(Cl)c(C(F)(F)F)c2)c1` [Compound 909, 3-{[Bis-(2-diethylamino-ethyl)-amino]-methyl}-N-[2-(4-chloro-3-trifluoromethyl-benzylidene-hydrazinocarbonyl)-4-piperidin-1-yl-phenyl]-benzamide] belongs 1020 nM.
As for `CCN(CC)CCN(CCN(CC)CC)Cc1cccc(C(=O)Nc2ccc(N3CCCCC3)cc2C(=O)N/N=C/c2ccc(OC)cc2)c1` [Compound 910, 3-{[Bis-(2-diethylamino-ethyl)-amino]-methyl}-N-[2-(4-methoxy-benzylidene-hydrazinocarbonyl)-4-piperidin-1-yl-phenyl]-benzamide], the figure is 7810 nM; as for `CCCN(CCC)c1ccc(NC(=O)c2cccc(CN(C)CCN(CC)CC)c2)c(C(=O)N/N=C/c2ccc(Cl)c(C(F)(F)F)c2)c1` [Compound 911, N-[2-(4-Chloro-3-trifluoromethyl-benzylidene-hydrazinocarbonyl)-4-dipropylamino-phenyl]-3-{[(2-diethylamino-ethyl)-methyl-amino]-methyl}-benzamide], less than 1000 nM.
To `CCCN(CCC)c1ccc(NC(=O)c2cccc(CN(C)CCN(CC)CC)c2)c(C(=O)N/N=C/c2ccc(OC)cc2)c1` [Compound 912, 3-{[(2-Diethylamino-ethyl)-methyl-amino]-methyl}-N-[4-dipropylamino-2-(4-methoxy-benzylidene-hydrazinocarbonyl)-phenyl]-benzamide] belongs 1040 nM; to `Cc1ccc(/C=N/NC(=O)c2cc(N3CCCCC3)ccc2NC(=O)c2cccc(CNCCN(CCO)CCO)c2)cc1C` [Compound 913, 3-({2-[Bis-(2-hydroxy-ethyl)-amino]-ethylamino}-methyl)-N-[2-(3,4-dimethyl-benzylidene-hydrazinocarbonyl)-4-piperidin-1-yl-phenyl]-benzamide], 1650 nM.
In the case of `COc1ccc(/C=N/NC(=O)c2cc(N3CCCCC3)ccc2NC(=O)c2cccc(CNCCN(CCO)CCO)c2)cc1` [Compound 915, 3-({2-[Bis-(2-hydroxy-ethyl)-amino]-ethylamino}-methyl)-N-[2-(4-methoxy-benzylidene-hydrazinocarbonyl)-4-piperidin-1-yl-phenyl]-benzamide], the IC50 stood at 8150 nM.
As for `CCN(CC)CCN(C)Cc1cccc(C(=O)Nc2ccc(N3CCCC3)cc2C(=O)N/N=C/c2ccc(C)c(C)c2)c1` [Compound 916, 3-{[(2-Diethylamino-ethyl)-methyl-amino]-methyl}-N-[2-(3,4-dimethyl-benzylidene-hydrazinocarbonyl)-4-pyrrolidin-1-yl-phenyl]-benzamide], the figure is 5220 nM.
Consider `CCN(CC)CCN(C)Cc1cccc(C(=O)Nc2ccc(N3CCCC3)cc2C(=O)N/N=C/c2ccc(Cl)c(C(F)(F)F)c2)c1` [Compound 917, N-[2-(4-Chloro-3-trifluoromethyl-benzylidene-hydrazinocarbonyl)-4-pyrrolidin-1-yl-phenyl]-3-{[(2-diethylamino-ethyl)-methyl-amino]-methyl}-benzamide], for which the IC50 worked out at 1250 nM.
To `CCN(CC)CCN(C)Cc1cccc(C(=O)Nc2ccc(N3CCCC3)cc2C(=O)N/N=C/c2ccc(OC)cc2)c1` [Compound 918, 3-{[(2-Diethylamino-ethyl)-methyl-amino]-methyl}-N-[2-(4-methoxy-benzylidene-hydrazinocarbonyl)-4-pyrrolidin-1-yl-phenyl]-benzamide] belongs 1550 nM; to `Cc1ccc(/C=N/NC(=O)c2cc(N3CCCC3)ccc2NC(=O)c2cccc(CSCCO)c2)cc1C` [Compound 919, N-[2-(3,4-Dimethyl-benzylidene-hydrazinocarbonyl)-4-pyrrolidin-1-yl-phenyl]-3-(2-hydroxy-ethylsulfanylmethyl)-benzamide], 310 nM.
